We go through three compounds from patent US20140221499A1, “NOVEL RODENT CONTROL AGENTS AND USES THEREOF” (priority 2011, published 2014).

One assay addresses T1, rTAAR7d (Rattus norvegicus, UniProt Q923X5).
T1 sequence (Q923X5 1-358): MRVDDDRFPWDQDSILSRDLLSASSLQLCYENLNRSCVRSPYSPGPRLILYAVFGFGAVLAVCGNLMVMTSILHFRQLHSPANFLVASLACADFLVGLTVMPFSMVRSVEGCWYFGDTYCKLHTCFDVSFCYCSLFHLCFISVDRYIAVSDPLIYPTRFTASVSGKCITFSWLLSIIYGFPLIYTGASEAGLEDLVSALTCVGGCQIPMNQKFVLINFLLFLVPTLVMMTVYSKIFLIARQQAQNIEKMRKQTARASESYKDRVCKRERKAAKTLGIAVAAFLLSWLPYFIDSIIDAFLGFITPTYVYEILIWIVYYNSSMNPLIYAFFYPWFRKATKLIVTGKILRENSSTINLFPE
Nature of the assay: TAAR reporter gene assay, rTAAR7d. Also noted: Full Taar coding regions were cloned into pcDNA3.1-(Invitrogen); Rho tag (first 20 aa of bovine rhodopsin + linker); expressed in transfected cells; host or cells: HEK293. It is filed as cell-based. From the text: (§1) Here, we set out to identify agonists for additional mouse and rat TAARs. We examined odor response profiles using a previously established reporter gene assay based on cAMP-dependent odor transduction in olfactory sensory neurons (40, 42). Briefly, TAAR plasmids were transfected into HEK293 cells along with a cAMP-dependent reporter gene encoding secreted alkaline phosphatase (CRE-SEAP). TAARs were expressed both in unmodified form and as fusion proteins with an N-terminal sequence of bovine rhodopsin (‘Rho tag’) that promotes cell surface expression of some chemosensory receptors (35). Transfected cells were incubated with test chemicals, and phosphatase activity was quantified with a fluorescent substrate as a reporter for TAAR activation. In initial experiments, we tested 38 different odorant mixtures containing 244 structurally diverse test chemicals (2-5 μM) for the ability to activate each mTAAR. Subsequently, we tested 73 amines that included known mTAAR agonists and related chemicals for the ability to activate each rTAAR.
(§2) TAAR functional assays. […] Fluorescence was measured on an EnVision plate reader (Perkin Elmer) and SEAP activity graphed as relative fluorescence of a phosphatase substrate.
Background: A reporter such as luciferase makes a cellular process visible.

The target in a further assay is T2, mTAAR7f (Mus musculus, UniProt Q5QD08).
T2 sequence (Q5QD08 1-358): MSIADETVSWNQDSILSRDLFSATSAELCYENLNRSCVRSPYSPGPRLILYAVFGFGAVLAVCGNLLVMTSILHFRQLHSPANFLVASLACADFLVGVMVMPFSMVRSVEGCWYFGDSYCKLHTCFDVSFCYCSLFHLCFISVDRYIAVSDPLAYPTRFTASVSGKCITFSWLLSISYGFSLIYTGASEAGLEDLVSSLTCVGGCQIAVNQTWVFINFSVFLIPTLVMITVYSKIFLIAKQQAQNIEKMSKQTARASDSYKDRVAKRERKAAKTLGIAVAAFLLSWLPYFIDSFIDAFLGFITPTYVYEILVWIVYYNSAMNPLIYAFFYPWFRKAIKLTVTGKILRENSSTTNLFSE
Nature of the assay: TAAR reporter gene assay, mTAAR7f. It is filed as cell-based. Also noted: Full Taar coding regions were cloned into pcDNA3.1-(Invitrogen); Rho tag (first 20 aa of bovine rhodopsin + linker); expressed in transfected cells; host or cells: HEK293.
Source text: as §1, with “Subsequently, we tested 73 amines that included known mTAAR agonists and related chemicals for the ability to activate each rTAAR.” left out
as §2
TAAR functional assays. […] SEAP activity is measured as fluorescence resulting from dephosphorylation of a substrate, 4-methylumbelliferyl phosphate. Fluorescence values were obtained using an EnVision plate reader (Perkin Elmer) and are reported directly without normalization. […]

In a further assay the target is T3, mouse TAAR3 (Mus musculus, UniProt Q5QD16).
T3 construct: Full Taar coding regions were cloned into pcDNA3.1-(Invitrogen); expressed in transfected cells; host or cells: HEK293
T3 sequence (Q5QD16 1-343): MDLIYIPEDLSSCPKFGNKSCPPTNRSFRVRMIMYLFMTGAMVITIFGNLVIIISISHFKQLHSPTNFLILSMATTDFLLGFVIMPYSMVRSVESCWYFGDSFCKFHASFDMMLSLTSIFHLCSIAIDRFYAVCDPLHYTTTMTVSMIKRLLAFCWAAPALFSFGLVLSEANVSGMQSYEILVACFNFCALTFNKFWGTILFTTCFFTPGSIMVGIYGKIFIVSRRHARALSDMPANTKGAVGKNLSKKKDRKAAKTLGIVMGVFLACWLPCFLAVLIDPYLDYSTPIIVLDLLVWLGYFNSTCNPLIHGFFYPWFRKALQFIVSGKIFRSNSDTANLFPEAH
Briefly: TAAR3 CRE-SEAP reporter gene assay in transfected HEK293 cells. It is filed as cell-based. How it is done:
Reporter gene assays were performed on HEK293 cells transfected with mouse TAAR3 and CRE-SEAP.
TAAR functional assays. Reporter gene assays were performed as described (Liberles S D & Buck LB (2006) A second class of chemosensory receptors in the olfactory epithelium. Nature 442(7103):645-650) with the following minor modifications. Test urines were diluted in serum-free media containing penicillin G (100 Units/ml, Invitrogen) and streptomycin sulfate ([…], Invitrogen). SEAP activity is measured as fluorescence resulting from dephosphorylation of a substrate, 4-methylumbelliferyl phosphate. Fluorescence values were obtained using an EnVision plate reader (Perkin Elmer) and are reported directly without normalization. All TAARs, except mouse TAAR3, were expressed as fusion proteins with an N-terminal sequence of bovine rhodopsin (Krautwurst D, Yau K W, & Reed R R (1998) Identification of ligands for olfactory receptors by functional expression of a receptor library. Cell 95(7):917-926).

Assay [1] deals with corticosterone levels in rat plasma. Nature of the assay: Plasma corticosterone assay after odor exposure. The settings on record: 30 min exposure, 10% amine or 2% TMT, 1 ml, ±SEM. The assay is classed as in vivo. How it is done: Avoidance to 2-phenylethylamine in rats was associated with acute changes in circulating levels of the stress hormone corticosterone.
Plasma corticosterone assay. […] Corticosterone levels were measured in duplicate using a competitive radioactive binding assay as described previously (Pryce C R, Bettschen D, Bahr N I, & Feldon J (2001) Comparison of the effects of infant handling, isolation, and nonhandling on acoustic startle, prepulse inhibition, locomotion, and HPA activity in the adult rat. Behav Neurosci 115(1):71-83).

Turning to `CN(C)C1CCCCC1` [ligand 10, N,N-dimethylcyclohexylamine], the rTAAR7d activation result on rTAAR7d was “activated”. At mTAAR7f, the mTAAR7f activation entry was “activated”.

In the case of `CN(C)CCc1ccccc1` [ligand 6, N,N-dimethyl-2-phenylethylamine], the rTAAR7d activation result on rTAAR7d is “not”. Further, at mTAAR7f, the mTAAR7f activation result is reported as “not”.

As to `NCCc1ccccc1` [2-phenylethylamine], on mouse TAAR3, the EC50 (as a rule, the midpoint of the concentration-response curve) was roughly 100 µM. The “reduced sensitivity of TAAR3 compared to TAAR4” value at mouse TAAR3 (TAAR3 vs TAAR4) was found to be 30 fold. For the same compound, the “plasma levels of corticosterone” value in assay [1] is 194 ± 18 ng/mL.
